We go through 26 compounds from ChEMBL document CHEMBL3217522, “New substituted aryl esters and aryl amides of 3,4-dihydro-2H-1,2,4-benzothiadiazine 1,1-dioxides as positive allosteric modulators of AMPA receptors” (Medchemcomm, 2011).

Data set [1] deals with T1, Glutamate receptor ionotropic, AMPA (Rattus norvegicus) (UniProt P19491+P19492+P19493+P19490). Kind of data set: Positive allosteric modulation of AMPA receptor in embryonic rat brain cells assessed as concentration required for 2-fold increase in AMPA-induced membrane depolarization after 3 mins by fluorescence assay. It counts as cell-based.
In data set [2] the target is T1, Glutamate receptor ionotropic, AMPA (Rattus norvegicus). Kind of data set: Positive allosteric modulation of AMPA receptor in embryonic rat brain cells assessed as potentiation of membrane depolarization after 3 mins by fluorescence assay relative to AMPA. The data set is classed as cell-based.
In data set [3] the target is Glutamate receptor ionotropic, AMPA (Rattus norvegicus, UniProt P19490+P19491+P19492+P19493). Kind of data set: Positive allosteric modulation of AMPA receptor in embryonic rat brain cells assessed as potentiation of AMPA-induced membrane depolarization after 3 mins by fluorescence assay. The data set is classed as cell-based.
Data set [4] can be described thus: Stability of the compound in PBS at pH 7.4 at 1 mM after 24 hrs at 25 degC HPLC analysis. It counts as physicochemical. Particulars: buffer, pH 7.4, 24 h, 1000 µM.
Data set [5] is described as follows: Stability of the compound in PBS at pH 1 at 1 mM after 24 hrs at 25 degC HPLC analysis. The data set is classed as physicochemical. The note with it: buffer, pH 1, 24 h, 1000 µM.

As for `CCN1CNS(=O)(=O)c2cc(C(=O)Oc3ccccc3OC)ccc21`, in data set [1], the Activity turned out to be 10.6 µM. Further, the max activation in data set [2] was 380%.

Consider `CCN1CNS(=O)(=O)c2cc(C(=O)Oc3cccc(OCc4ccccc4)c3)ccc21`, for which the Activity in data set [1] was more than 100 µM. Further, the max activation in data set [2] was less than 200%.

In the case of `CCN(C(=O)c1ccc2c(c1)S(=O)(=O)NCN2C)c1ccccc1`, the Activity in data set [1] is more than 100 µM. Besides, the max activation in data set [2] was less than 200%.

For `COc1ccccc1OC(=O)c1ccc2c(c1)S(=O)(=O)NCN2`, in data set [1], the Activity was more than 100 µM. The max activation in data set [2] is less than 200%.

Take `CN1CNS(=O)(=O)c2cc(C(=O)Oc3ccccc3)ccc21`: the EC50 (in general, the midpoint of the concentration-response curve) in data set [3] came to 3.65 µM. The Activity in data set [1] stood at 3.66 µM. Also, the Stability result in data set [4] and in data set [5] was “Stable” in each case. The max activation in data set [2] stood at 550%.

With `CCN1CNS(=O)(=O)c2cc(C(=O)OCCc3ccccc3)ccc21`, the Activity in data set [1] was more than 100 µM. The max activation in data set [2] is less than 200%.

On to `CCCc1ccc(OC(=O)c2ccc3c(c2)S(=O)(=O)NCN3CC)cc1`, for which the Activity in data set [1] was more than 100 µM. Further, the max activation in data set [2] was less than 200%.

On to `CCN1CNS(=O)(=O)c2cc(C(=O)Oc3ccc(C)cc3)ccc21`, for which the Activity in data set [1] is more than 100 µM. For the same compound, the max activation in data set [2] is less than 200%.

`CCN1CNS(=O)(=O)c2cc(C(=O)Oc3ccccc3OCc3ccccc3)ccc21`: the Activity in data set [1] is more than 100 µM. In addition, the max activation in data set [2] is less than 200%.

Consider `Cc1ccccc1OC(=O)c1ccc2c(c1)S(=O)(=O)NCN2C`, for which the concentration for a half-maximal effect (EC50) in data set [3] came out at 1.72 µM. For the same compound, in data set [1], the Activity amounted to 0.94 µM. The max activation in data set [2] stood at 410%.

For the compound `CCOc1ccccc1OC(=O)c1ccc2c(c1)S(=O)(=O)NCN2C`, the Activity in data set [1] is 7.08 µM. For the same compound, in data set [2], the max activation was more than 360%.

On to `CN1CNS(=O)(=O)c2cc(C(=O)Nc3ccccc3)ccc21`, for which the Activity in data set [1] was more than 100 µM. The max activation in data set [2] was less than 200%.

Regarding `CCN1CNS(=O)(=O)c2cc(C(=O)OCc3ccccc3)ccc21`, the Activity in data set [1] was more than 100 µM. In addition, the max activation in data set [2] is less than 200%.

Turning to `CN1CNS(=O)(=O)c2cc(C(=O)N(C)c3ccccc3)ccc21`, the Activity in data set [1] is more than 100 µM. In data set [2], the max activation was less than 200%.

In the case of `CCN1CNS(=O)(=O)c2cc(C(=O)Nc3ccccc3)ccc21`, the Activity in data set [1] is more than 100 µM. Further, in data set [2], the max activation was less than 200%.

Take `CCc1ccccc1OC(=O)c1ccc2c(c1)S(=O)(=O)NCN2CC`: in data set [1], the Activity is more than 100 µM. In addition, the max activation in data set [2] is less than 200%.

`Cc1cccc(OC(=O)c2ccc3c(c2)S(=O)(=O)NCN3C)c1`: the Activity in data set [1] is more than 100 µM. Besides, the max activation in data set [2] was less than 200%.

For the compound `CCOc1ccccc1OC(=O)c1ccc2c(c1)S(=O)(=O)NCN2CC`, the Activity in data set [1] is 21.6 µM. In data set [2], the max activation was more than 270%.

Regarding `COc1ccccc1OC(=O)c1ccc2c(c1)S(=O)(=O)NCN2C`, the 50% effective concentration (EC50) in data set [3] was determined as 7.27 µM. Besides, the Activity in data set [1] stood at 6.4 µM. Also, the max activation in data set [2] was 410%.

With `CCN1CNS(=O)(=O)c2cc(C(=O)Oc3cccc(OC)c3)ccc21`, the Activity in data set [1] was more than 35 µM. Besides, the max activation in data set [2] worked out at 200%.

Take `CCN1CNS(=O)(=O)c2cc(C(=O)Oc3cccc(C)c3)ccc21`: the Activity in data set [1] was more than 100 µM. Further, the max activation in data set [2] is less than 200%.

In the case of `CCCc1ccccc1OC(=O)c1ccc2c(c1)S(=O)(=O)NCN2CC`, the Activity in data set [1] was more than 100 µM. The max activation in data set [2] is less than 200%.

Regarding `CN1CNS(=O)(=O)c2cc(C(=O)Oc3ccccc3OCc3ccccc3)ccc21`, in data set [1], the Activity is more than 100 µM. In data set [2], the max activation was less than 200%.

For the compound `CCc1ccccc1OC(=O)c1ccc2c(c1)S(=O)(=O)NCN2C`, the Activity in data set [1] was more than 100 µM. For the same compound, the max activation in data set [2] is less than 200%.

On to `CCN1CNS(=O)(=O)c2cc(C(=O)Oc3ccccc3C)ccc21`, for which the EC50 in data set [3] amounted to 3.91 µM. Moreover, the Activity in data set [1] stood at 3.48 µM. The max activation in data set [2] was 330%.

Take `CCN1CNS(=O)(=O)c2cc(C(=O)Oc3ccc(OC)cc3)ccc21`: the Activity in data set [1] was more than 100 µM. In data set [2], the max activation is less than 200%.
